{"source": "patent US5707815A", "about": "“Mammalian monocyte chemoattractant protein receptors and assays using them” (Regents of the University of California, priority 1995, dated 1998)", "key": {"[1]": {"tested_on": "MM6 cells", "assay": "MCP-1 induced calcium flux in MM6 cells (calcium efflux assay)", "format": "cell-based, human", "protocol": "(§1) Because monocytes are difficult to isolate in usable quantity and express less than 2000 high affinity MCP-1 binding sites per cell, a cultured cell line that responded well to MCP-1 had to be identified. Using the calcium effiux assay as described in Vu, Cell 64:1057-68(1991), MCP-1 induced calcium fluxes in various cell lines were measured. […] In contrast, a dose-dependent calcium flux was detected in MM6 cells, with half maximal stimulation at 4nM MCP-1."}, "[2]": {"tested_on": "undifferentiated human HL-60 cells", "assay": "MCP-1 induced calcium flux in HL-60 cells", "format": "cell-based", "details": "undifferentiated HL-60 cells", "protocol": "as §1"}, "[3]": {"tested_on": "human erythroleukemia (HEL) cells", "assay": "MCP-1 induced calcium flux in HEL cells", "format": "cell-based", "protocol": "as §1"}, "[4]": {"tested_on": "MIP-1α/RANTES receptor", "assay": "Ca45 efflux assay in Xenopus oocytes, MIP-1α/RANTES receptor examined in parallel", "format": "cell-based"}, "[5]": {"tested_on": "MCP-1RB receptor", "assay": "Intracellular calcium mobilization (indo-1) in stably transfected MCP-1RB/293 cells", "format": "cell-based, human", "details": "MCP-1RB/293 cells", "protocol": "Calcium mobilization in 293 cells was then investigated. Transfected HEK-293 cells were grown until confluent, trypsinized briefly, washed with phosphate buffered saline containing 1 mg/ml BSA (PBS-BSA), and resuspended in serum-free MEM-EBSS supplemented with 1 mg/ml BSA and 10 mM HEPES (pH 7.0) at a density of 2×10^7 cells/ml. The cells were incubated in the dark at 37° C. for 20 min in the presence of 5-10 μg/ml indo-1 AM (Molecular Probes, Inc., Eugene, Oreg.). Nine volumes of PGS-BSA were added, and the cells were incubated for an additional 10 min at 37° C., pelleted by centrifugation, and washed twice with 50 ml of the PBS-BSA solution. Washed, indo-1-loaded cells were then resuspended in Hank's Balanced Salt Solution (1.3 mM Ca^2+) supplemented with 1 mg/ml BSA (HBS-BSA) at a density of approximately 0.5×10^6 cells/ml at room temperature. To measure intracellular calcium ([Ca^2+ ]i), 0.5 ml of the cell suspension was placed in a quartz cuvette in a Hitachi F-2000 fluorescence spectrophotometer. […] Intracellular calcium was measured by excitation at 350 nm and fluorescence emission detection at 490 nm (F1) and 410 nm (F2) wavelengths. The [Ca^2+ ]i was estimated by comparing the 490/410 fluorescence ratio after agonist application (R) to that of calibration ratios measured at the end of each run, according to the equation:\n[Ca^2+ ]i =Kd ×[(R--Rmin)/(Rmax\nwhere Rmax and Rmin represent the fluorescence ratio under saturating (1.3 mM Ca^2+) and nominally free (10 mM EGTA, Sigma Chemical Co.) calcium conditions, Kd is the dissociation constant of calcium for indo-1, R is the fluorescence ratio, and Sf2/Sb2 is the fluorescence ratio of free and bound indo-1 dye at 410 nm. See Thomas, AP and Delaville, F (1991) in Cellular Calcium, a Practical Approach, Oxford Univ. Press, pp. 1-54.\nTo quantirate calcium responses, MCP-1 dose response curves were generated in each experiment and the results were expressed as a percent of the maximum calcium signal (at 300 nM MCP-1) measured in that experiment. The changes in [Ca^2+ ]i levels in response to each concentration of agonist were determined by subtracting the baseline from peak [Ca^2+ ]i levels, which were determined by averaging 5 seconds of data prior to agonist addition and surrounding the peak response, respectively. In experiments done to determine the role of extracellular calcium, 3 mM EGTA was added 60-90 seconds prior to MCP-1. […] All experiments were performed at room temperature.\n(§2) Inhibition of MCP-1RB receptor activation by bordetella pertussis toxin was investigated. Pertussis toxin (List Biological Labs, Inc., Campbell, Calif.) was dissolved in 0.01M sodium phosphate, pH 7.0, 0.05M sodium chloride and diluted into normal serum containing media at final concentrations of 0.1 ng/ml to 100 ng/ml, and incubated with cells overnight (14-16 h) at 37° C. The conditions of the Pertussis toxin treatment of the 293 cells were identical for calcium fluorimetric and adenylyl cyclase experiments. In the adenylyl cyclase experiments, the Pertussis toxin was added at the same time as [^3 H]adenine.\n(§3) Dose response curves generated in the calcium fluorimetric and adenylyl cyclase inhibition assays were fit by a nonlinear least squares program to the logistic equation:\n(§4) Effect=max effect/[1+(EC50 /(agonist)^n)]\n(§5) where n and EC50 represent the Hill coefficient and the agonist concentration that elicited a half-maximal response, respectively, and were derived from the fitted curve. Curve fitting was done with the computer program \"Prism\" (by Graph Pad, San Diego, Calif.). Results represent the mean ±SE. The 95% confidence intervals (CI) of the EC50 and IC50 values, when given, were calculated from the log EC50 and IC50 values, respectively."}, "[6]": {"tested_on": "MCP-1RB receptor", "format": "cell-based, human", "protocol": "To investigate inhibition of adenylyl cyclase activity, HEK-293 cells stably-transfected with the MCP-1RB receptor and the MIP-1α/RANTES receptor were grown until confluent in 24-well tissue culture dishes and labeled overnight with 2 μCi/ml of [^3 H]adenine (25-30 Ci/mmol) (New England Nuclear, Boston, Mass.) in MEM-EBSS supplemented with 10% FCS. The next day, the cells were washed by incubation at room temperature with 0.5 ml of serum-free MEM-EBSS media supplemented with 10 mM HEPES, 1 mg/ml BSA, and 1 mM IBMX (3-isobutyl-1-methylxanthine) for 5 min. […] The incubation was terminated by replacement of the media with 1 ml of ice-cold 5% TCA (trichloroacetic acid), 1 mM cAMP, and 1 mM ATP (Sigma). Following incubation at 4° C. for 30 min, the labeled [^3 H]ATP and [3H]cAMP pools were separated and quantitated by chromatography on Dowex 50W (200-400 mesh, hydrogen form, from Sigma) and neutral alumina columns (also from Sigma), as described in Hung, J. Biol. Chem. 267:20831-34 (1992) and Wong, Nature 351: 63-65 (1991). The 1 ml acid supernatant was loaded onto a 1-ml Dowex 50W column and the ATP pool eluted with 3 ml of H2 O. The Dowex 50W columns were then placed over 1-ml alumina columns, and 10 ml of H2 O was added to the Dowex resin and the eluant allowed to drop directly onto the neutral alumina. The cAMP pool was then eluted directly from the alumina with 5 ml of 0.1M imidazole/0.01mM sodium azide. The [^3 H]ATP and [^3 H]cAMP fractions were counted by liquid scintillation spectroscopy. The cAMP pool for each sample was normalized to its own ATP pool and expressed as a ratio by the equation (cAMP cpms/ATP cpms)×100. In each experiment full dose-response curves were generated and expressed as a percent of the forskolin control.\nas §2, §3, §4, §5"}, "[7]": {"tested_on": "monocyte", "details": "Yoshimura, J. Immunol. 145:292-97 (1990); cited from earlier work"}}, "note": "“Also recorded” adds a separate entry of the source."}
{"substance": "monocyte chemoattractant protein-1 [MCP-1]", "values": [{"measurement": "EC50", "setting": "[1]; dose-dependent calcium flux, read-out: half maximal stimulation of calcium flux", "value": 4, "unit": "nM"}, {"measurement": "effect of prior exposure to the chemokine on the calcium response to the other chemokine", "setting": "[1]; label = chemokine given first, MCP-1 versus RANTES (or MIP-1α)", "value": "partially blocked"}, {"measurement": "MCP-1 induced calcium flux", "setting": "[2]", "value": "No calcium flux was detected"}, {"measurement": "MCP-1 induced calcium flux", "setting": "[3]", "value": "No calcium flux was detected"}, {"measurement": "receptor signaling in response to chemokine", "setting": "[4]", "value": "not to MCP-1"}, {"measurement": "concentration giving small but reproducible calcium signals", "setting": "[5]", "value": 100, "unit": "pM"}, {"measurement": "homologous desensitization to a second challenge with MCP-1", "setting": "[5]", "value": "refractory to activation by a second challenge; also recorded: desensitized the cells to a second addition"}, {"measurement": "time to peak of calcium transients after addition", "setting": "[5]", "value": "4 to 8", "unit": "s"}, {"measurement": "EC50", "setting": "[5]; average of four full dose-response curves", "value": "2 to 4", "unit": "nM"}, {"measurement": "selectivity for the MCP-1 receptor", "setting": "[6]", "value": "at least 9000 fold"}, {"measurement": "block of forskolin-induced increase of cAMP", "setting": "[6]; co-addition with forskolin", "value": 78, "unit": "%"}, {"measurement": "reduction of basal cAMP accumulation", "setting": "[6]; no forskolin, p<0.01", "value": 55, "unit": "%"}, {"measurement": "EC50 for monocyte chemotaxis", "setting": "[7]", "value": "subnanomolar"}]}
